Data on 21 substances can be found in patent publication US20200207822A1, “PEPTIDE INHIBITORS OF INTERLEUKIN-23 RECEPTOR AND THEIR USE TO TREAT INFLAMMATORY DISEASES” (Protagonist Therapeutics, Inc., priority 2017, published 2020).

Positions of bridges follow the written chain, without caps; N, C: chain ends. Non-standard residues stand in square brackets, D forms with d. 2Nal = N[C@@H](Cc1ccc2ccccc2c1)C(=O)O; AEF = NCCOc1ccc(C[C@H](N)C(=O)O)cc1; Pen = CC(C)(S)[C@H](N)C(=O)O; Thp = NC1(C(=O)O)CCOCC1; Abu = CC[C@H](N)C(=O)O

For the first test, the system named is IL-23R-expressing DB cells stimulated with IL-23 (pSTAT3 levels). Kind of test: DB cells IL23R pSTAT3 cell assay (Cisbio HTRF pSTAT3). In kind it is cell-based, human. Conditions: Table E1, Pen-Pen disulfide peptides, IL-23 0.5 nM, 30 minutes at 37° C. The source says: Human ELISA indicates the IL23-IL23R competitive binding assay described below, Rat ELISA indicates the rat IL-23R competitive binding ELISA assay described below, and pStat3HTRF indicates the DB cells IL-23R pSTAT3 cell assay described below. The peptides depicted in Table E1 are cyclized via a disulfide bridge formed between two Pen residues in these peptides. The peptides depicted in Table E2 are cyclized via a thioether bond between the indicated amino acid residues. Table E2 provides an illustrative structure depicting thioether cyclization, which is indicated in the table by the term “cyclo,” with the cyclic region bracketed immediately following the term “cyclo.” For certain peptides, the residue Abu is present where indicated, whereas in other embodiments, e.g., those related to the non-cyclized form, the Abu may be referred to as a hSer(Cl) or homoSer residue.
DB Cells IL23R pSTAT3 Cell Assay
IL-23 plays a central role in supporting and maintaining Th17 differentiation in vivo. […] This cell assay examines the levels of pSTAT3 in IL-23R-expressing DB cells when stimulated with IL-23 in the presence of test compounds.
(TR-FRET usually uses a lanthanide donor and a delayed reading to cut background.)
By IC50 is commonly meant the concentration that inhibits the measured activity by half. The low end stands for greater potency in that assay, the high end for weaker potency in that assay. “8 (Ac-[Pen]NTWQ[Pen][AEF]W[Thp]K(Ac)NN-NH2; disulfide 1-6 (inferred)) [compound 8]” came in with an IC50 of 0.001 to 0.01 µM.

The test is the same for the next values; noted with them: Table E2, thioether peptides, IL-23 0.5 nM, 30 minutes at 37° C.
Consider “73 (XXQTWQCXXXEND; MOD_RES (1)..(1) D-form arginine; MOD_RES (2)..(2) Abu; (2)..(7) residues cyclosized; MOD_RES (8)..(8) 4-(2-aminoethoxy)-L-phenylalanine; MOD_RES (9)..(9) L-2-Napthylalanine; MOD_RES (10)..(10) 4-amino-4-carboxy-tetrahydropyran) [compound 73]”, for which the concentration for half-maximal inhibition (IC50) lay in the range of 0.001 to 0.01 µM. The substance “74 (XXQTWQCXXXEDN; MOD_RES (1)..(1) D-form arginine; MOD_RES (2)..(2) Abu; (2)..(7) residues cyclosized; MOD_RES (8)..(8) 4-(2-aminoethoxy)-L-phenylalanine; MOD_RES (9)..(9) L-2-Napthylalanine; MOD_RES (10)..(10) 4-amino-4-carboxy-tetrahydropyran) [compound 74]” came in with an IC50 of 0.01 to 0.1 µM.

“75 (XXQTWECXXXENN; MOD_RES (1)..(1) D-form arginine; MOD_RES (2)..(2) Abu; (2)..(7) residues cyclosized; MOD_RES (8)..(8) 4-(2-aminoethoxy)-L-phenylalanine; MOD_RES (9)..(9) L-2-Napthylalanine; MOD_RES (10)..(10) 4-amino-4-carboxy-tetrahydropyran) [compound 75]”: the IC50 fell in the range of 0.001 to 0.01 µM. Still for that read-out and setting: as for “77 (Ac-[dR][Abu]QTWQC[AEF][2Nal][Thp]EDD-NH2; thioether 2-7) [compound 77]”, the figure is 0.01 to 0.1 µM; as for “78 (Ac-[dR][Abu]QTWEC[AEF][2Nal][Thp]END-NH2; thioether 2-7) [compound 78]”, 0.001 to 0.01 µM; as for “79 (Ac-[dR][Abu]ETWQC[AEF][2Nal][Thp]END-NH2; thioether 2-7) [compound 79]”, 0.001 to 0.01 µM. “80 (Ac-[dR][Abu]QTWEC[AEF][2Nal][Thp]EDN-NH2; thioether 2-7) [compound 80]” gave an IC50 of 0.01 to 0.1 µM.

“81 (Ac-[dR][Abu]ETWQC[AEF][2Nal][Thp]EDN-NH2; thioether 2-7) [compound 81]” came in with a concentration for half-maximal inhibition (IC50) of 0.01 to 0.1 µM. Still for that read-out and setting: as for “82 (Ac-[dR][Abu]ETWEC[AEF][2Nal][Thp]ENN-NH2; thioether 2-7) [compound 82]”, the figure is 0.001 to 0.01 µM.

In the case of “84 (XXQTWQCXXXEND; MOD_RES (1)..(1) D-form arginine; MOD_RES (2)..(2) Abu; (2)..(7) residues cyclosized; MOD_RES (8)..(8) 4-(2-aminoethoxy)-L-phenylalanine; MOD_RES (9)..(9) L-2-Napthylalanine; MOD_RES (10)..(10) 4-amino-4-carboxy-tetrahydropyran) [compound 84]”, the concentration for half-maximal inhibition (IC50) fell in the range of 0.01 to 0.1 µM. Turning to “85 (XXQTWQCXXXEDN; MOD_RES (1)..(1) D-form arginine; MOD_RES (2)..(2) Abu; (2)..(7) residues cyclosized; MOD_RES (8)..(8) 4-(2-aminoethoxy)-L-phenylalanine; MOD_RES (9)..(9) L-2-Napthylalanine; MOD_RES (10)..(10) 4-amino-4-carboxy-tetrahydropyran) [compound 85]”, the IC50 is 0.01 to 0.1 µM.

Consider “86 (XXQTWECXXXENN; MOD_RES (1)..(1) D-form arginine; MOD_RES (2)..(2) Abu; (2)..(7) residues cyclosized; MOD_RES (8)..(8) 4-(2-aminoethoxy)-L-phenylalanine; MOD_RES (9)..(9) L-2-Napthylalanine; MOD_RES (10)..(10) 4-amino-4-carboxy-tetrahydropyran) [compound 86]”, for which the IC50 lay within 0.001 to 0.01 µM. Still for that read-out and setting: as for “99 (XXQTWFCXXXENN; MOD_RES (1)..(1) D-form arginine; MOD_RES (2)..(2) Abu; (2)..(7) residues cyclosized; MOD_RES (8)..(8) 4-(2-aminoethoxy)-L-phenylalanine; MOD_RES (9)..(9) L-2-Napthylalanine; MOD_RES (10)..(10) 4-amino-4-carboxy-tetrahydropyran) [compound 99]”, the figure is 0.01 to 0.1 µM. Same read-out and setting: to “100 (XXQTWWCXXXENN; MOD_RES (1)..(1) D-form arginine; MOD_RES (2)..(2) Abu; (2)..(7) residues cyclosized; MOD_RES (8)..(8) 4-(2-aminoethoxy)-L-phenylalanine; MOD_RES (9)..(9) L-2-Napthylalanine; MOD_RES (10)..(10) 4-amino-4-carboxy-tetrahydropyran) [compound 100]” belongs 0.001 to 0.01 µM; to “102 (XXQTWTCXXXENN; MOD_RES (1)..(1) D-form arginine; MOD_RES (2)..(2) Abu; (2)..(7) residues cyclosized; MOD_RES (8)..(8) 4-(2-aminoethoxy)-L-phenylalanine; MOD_RES (9)..(9) L-2-Napthylalanine; MOD_RES (10)..(10) 4-amino-4-carboxy-tetrahydropyran) [compound 102]”, 0.01 to 0.1 µM. Still for that read-out and setting: to “103 (XXQTWVCXXXENN; MOD_RES (1)..(1) D-form arginine; MOD_RES (2)..(2) Abu; (2)..(7) residues cyclosized; MOD_RES (8)..(8) 4-(2-aminoethoxy)-L-phenylalanine; MOD_RES (9)..(9) L-2-Napthylalanine; MOD_RES (10)..(10) 4-amino-4-carboxy-tetrahydropyran) [compound 103]” belongs 0.01 to 0.1 µM.

The same test, now with this note: Table L3 (E3), additional peptide inhibitors, IL-23 0.5 nM, 30 minutes at 37° C.
For “154 (XXQTWKCXXXENN; MOD_RES (1)..(1) D-form arginine; MOD_RES (2)..(2) Abu; (2)..(7) residues cyclosized; MOD_RES (6)..(6) PEG12 conjugation; MOD_RES (8)..(8) 4-(2-aminoethoxy)-L-phenylalanine; MOD_RES (9)..(9) L-2-Napthylalanine; MOD_RES (10)..(10) 4-amino-4-carboxy-tetrahydropyran) [compound 154]”, the 50% inhibitory concentration (IC50) was 0.001 to 0.01 µM. Same read-out and setting: to “156 (XXQTWQCXXXKNN; MOD_RES (1)..(1) D-form arginine; MOD_RES (2)..(2) Abu; (2)..(7) residues cyclosized; MOD_RES (8)..(8) 4-(2-aminoethoxy)-L-phenylalanine; MOD_RES (9)..(9) L-2-Napthylalanine; MOD_RES (10)..(10) 4-amino-4-carboxy-tetrahydropyran; MOD_RES (11)..(11) PEG12 conjugation) [compound 156]” belongs 0.001 to 0.01 µM; to “158 (XNTWQXXXXKNND; MOD_RES (1)..(1) L-Penicillamine; MOD_RES (6)..(6) L-Penicillamine; MOD_RES (7)..(7) 4-(2-aminoethoxy)-L-phenylalanine; MOD_RES (8)..(8) L-2-Napthylalanine; MOD_RES (9)..(9) alpha-methyl-L-Leucine; MOD_RES (10)..(10) …ON) [compound 158]”, 0.001 to 0.01 µM; to “160 (XNTWQXXXXKNNW; MOD_RES (1)..(1) L-Penicillamine; MOD_RES (6)..(6) L-Penicillamine; MOD_RES (7)..(7) 4-(2-aminoethoxy)-L-phenylalanine; MOD_RES (8)..(8) L-2-Napthylalanine; MOD_RES (9)..(9) alpha-methyl-L-Leucine; MOD_RES (10)..(10) …ON) [compound 160]”, 0.001 to 0.01 µM.
